US20140148482A1, “METHOD FOR SCREENING ANTI-CANCER DRUGS AND METHOD OF CANCER TREATMENT” (National Taiwan University, priority 2012, published 2014)
Like-named read-outs stand apart in the source and are kept apart here.

Assays:
[1] = tested on: c-jun mRNA in Huh-7 cells; experiment: c-jun mRNA induction in Huh-7 cells, quantitative RT-PCR; assay type: cell-based, human; conditions: 10 μM, 24 hours, reference control group = 100%
Procedure: (§1) Huh-7 cells, were added with 10 μM of the candidate compound and co-cultured under the same conditions for 24 hours. Sorafenib (10 μM) is used as a positive control group, and Huh-7 cells without compound treatment is used as the reference control group. mRNA levels were assessed through quantitative RT-PCR.
(§2) RNA was extracted using a Trizol reagent (Invitrogen, San Diego, Calif.). cDNAs were synthesized from total RNA (1 μg) using a High Capacity cDNA Archive kit (Applied Biosystems, Foster City, Calif.) and quantified using the TaqMan-Universal or SYBR Green PCR Master Mix (Applied Biosystems, Foster City, Calif.) on an ABI PRISM 7900 Sequence Detection System (Applied Biosystems, Foster City, Calif.). The primers for the GADD45β, GADD45γ and c-jun genes were purchased from Applied Biosystems (ABI TaqMan assay ID: Hs00169587_ml, Hs00198672_ml and Hs00277190_s1). Primers for the hypoxanthine phosphoribosyltransferase (HPRT; sense 5′-[…]-3′ and antisense 5′-[…]-3′) gene were used as endogenous controls. Conditions for PCR were as follows: 50° C. for 2 minutes, 95° C. for 10 minutes, and then 40 cycles of 95° C. for 15 seconds (denaturation) and 60° C. for 1 minute (annealing/extension). The relative mRNA amount of the target/control genes was calculated using the ΔCt (threshold cycle) method: relative expression=2−ΔCt, where ΔCt=Ct (target gene)−Ct (control gene). The gene expression of the reference control group is as 100%.

[2] = tested on: GADD45γ mRNA in Huh-7 cells; experiment: GADD45γ mRNA induction in Huh-7 cells, quantitative RT-PCR; assay type: cell-based, human; conditions: for screening criterion: increased expression of GADD45 family: 300% or above of GADD45γ expression, 800% or above of GADD45β expression, or both, Table 1; for GADD45γ relative gene expression, Mean: Huh-7 cells, 10 μM, 24 hours, reference control group = 100%
Procedure: as §1, §2
(§3) SC-20 was then tested for GADD45β, GADD45γ and c-Jun mRNA in sorafenib-sensitive (Huh-7) and sorafenib-resistant (Huh-7R) cell lines. The cell culture and the steps of SC-20 treatment were as described above. The concentration of SC-20 and was 10 μm. Said mRNA was measured via qRT-PCR.
as §2, with “Hs00277190_sl).” for “Hs00277190_s1).”, “gene).” for “gene). The gene expression of the reference control group is as 100%.”

[3] = tested on: GADD45β mRNA in Huh-7 cells; experiment: GADD45β mRNA induction in Huh-7 cells, quantitative RT-PCR; assay type: cell-based, human; conditions: 24 hours; for GADD45β relative gene expression, Mean: Huh-7 cells, 10 μM, reference control group = 100%; for GADD45β mRNA expression induction: Huh-7, 10 uM, FIG. 4B
Procedure: as §1, §2
The effects of GADD45β mRNA induction by different concentrations of the candidate compounds were tested.

Huh-7 xenograft = experiment: Subcutaneous xenograft model of HCC, Huh-7; assay type: in vivo, mice; conditions: SC-20 20 mg/kg/d vs sorafenib 50 mg/kg/d
Procedure: (§4) The protocol for the in vivo studies was approved by the Institutional Animal Care and Use Committee of College of Medicine, National Taiwan University. All the animal studies were performed according to the criteria outlined in the Guide for the Care and Use of Laboratory Animals prepared by National Academy of Sciences and published by NIH. Male BALB/c athymic (nu+/nu+) mice were inoculated subcutaneously with Huh-7 cells or Huh-7R cells (˜1×10^6). When the tumor volume reached ˜100 mm3 [volume (mm3)=(width)2×length×0.5], the mice were randomized into six treatment groups (n≧6 in each group): (a) vehicle control, (b) SC-20: 5 mg/kg/d, (c) SC-20: 10 mg/kg/d, (d) SC-20: 20 mg/kg/d, (e) SC-20: 50 mg/kg/d and (f) sorafenib: 50 mg/kg/d. Drug treatment was given daily via gavage. Tumor volume and body weight were recorded every 7 days. Tumor images from mice are from sacrifices at 25 days of treatment.
(§5) An additional mice were used to establish xenografts to observe survival time. For these experiments, mice with subcutaneously tumors (100 mm^3) were treated as described above. Survival was monitored until the experiments were terminated due to heavy tumor burden over 2000 mm^3 (FIG. 6C). Tx start, treatment start time; Tx stop, treatment stop time.

BNL-MEA allograft = experiment: Orthotopic allograft model of HCC, BNL-MEA; assay type: in vivo, mice
Procedure: The protocol for the in vivo studies was approved by the Institutional Animal Care and Use Committee of College of Medicine, National Taiwan University. All the animal studies were performed according to the criteria outlined in the Guide for the Care and Use of Laboratory Animals prepared by National Academy of Sciences and published by NIH. BALB/c mice were anaesthetized with isoflurane, and a small transverse incision was made in the left abdomen. BNL-MEA cells (˜1.5×10^5) suspended in 20 μl PBS were slowly injected with a 30-gauge needle into the left liver lobe, which was exposed through the incision. After injection, the incision was closed by suture with absorbable material. Five days after the surgery, the mice were randomized to three treatment groups (n≧4 in each group): (a) vehicle control, (b) SC-20 20 mg/kg/d and (c) sorafenib 10 mg/kg/d. Drug treatment was given daily via gavage. Mice sacrificed after twenty-five treatments were used as end-points of the therapeutic effect. In FIG. 7C, the arrows indicated the tumors.

Hep3B cells [4] = experiment: MTT cell viability, Hep3B; conditions: for cell viability of Hep3B (percentage of surviving cells): 72 hours of drug treatment, FIG. 2A
Procedure: (§7) Cell viability was assessed using an MTT (3-(4,5-dimethylthiazol-2-yl)-2,5-diphenyltetrazolium bromide) assay
(§8) Cells were cultured in DMEM, containing 10% fetal bovine serum, penicillin (100 units/mL), streptomycin (100 μg/mL), L-glutamine (2 mmol/L), and sodium pyruvate (1 mmol/L) at 37° C. in a humidified incubator containing 5% CO2.
(§9) Then the cells were collected and measured via an MTT assay.

Huh-7 cells [5] = experiment: MTT cell viability, Huh-7; assay type: cell-based, human; conditions: sorafenib-sensitive Huh-7, 72 hours, FIG. 5A
Procedure: as §7
The HCC cell line, Hep3B, was obtained from the American Type Culture Collection (ATCC), and the Huh-7 cell line was from the Health Science Research Resources Bank. Cells were cultured in DMEM, containing 10% fetal bovine serum, penicillin (100 units/mL), streptomycin (100 μg/mL), L-glutamine (2 mmol/L), and sodium pyruvate (1 mmol/L) at 37° C. in a humidified incubator containing 5% CO2.
Huh-7 and Hep3B cells were treated with sorafenib, SC-3 or SC-20 for 72 hours, and the cell viability was assessed using an MTT assay.

[6] = tested on: HCC cells (Huh-7, Hep3B, Huh-7R); experiment: MTT cell viability of HCC cells (FIG. 2A); assay type: cell-based, human; conditions: 72 hours, especially in sorafenib-resistant cell lines (Hep3B and Huh-7R)
Procedure: as §7
(§10) The HCC cell line, Hep3B, was obtained from the American Type Culture Collection (ATCC), and the Huh-7 cell line was from the Health Science Research Resources Bank. Cells were cultured in DMEM, containing 10% fetal bovine serum, penicillin (100 units/mL), streptomycin (100 μg/mL), L-glutamine (2 mmol/L), and sodium pyruvate (1 mmol/L) at 37° C. in a humidified incubator containing 5% CO2. A sorafenib-resistant cell line, Huh-7R, was generated through continuous treatment of Huh-7 cells with sorafenib up to 10 μmol/L.Human umbilical vein endothelial cells (HUVEC) were procured from ScienCell Research Laboratories, CA. HUVECs were maintained in endothelial cell culture medium (ScienCell) to selectively promote growth at 37° C. in a 5% CO2 incubator.
as §9

p-ERK in Hep3B cells = experiment: phospho-ERK protein level by Western blotting, Hep3B; assay type: cell-based, human; conditions: 24 hours, FIG. 4A
Procedure: (§6) Total-ERK, and phospho-ERK protein levels in HCC cells after sorafenib, SC-3 or SC-20 treatment at 24 hours. Whole-cell lysates after drug treatment were examined using Western blotting. Whole cell lysates of HCC cells after drug treatment were prepared and quantified as previously described (Ou D L et al. Cancer Res. 2010; 70:9309-18). SDS-PAGE and Western blot analysis were performed to measure protein expression. Signals were visualized using a UVP Imaging System (UVP, Upland, Calif.), or with X-ray film.

p-ERK in Huh-7 cells = experiment: phospho-ERK protein level by Western blotting, Huh-7; assay type: cell-based, human; conditions: Huh-7, 24 hours, FIG. 4A
Procedure: as §6

[7] = tested on: GADD45γ mRNA in Huh-7R cells; experiment: GADD45γ mRNA induction in sorafenib-resistant Huh-7R cells, qRT-PCR; assay type: cell-based, human; conditions: 10 μm, cut-off more than 300%, FIG. 3B
Procedure: as §3
as §2, with “Hs00277190_sl).” for “Hs00277190_s1).”, “gene).” for “gene). The gene expression of the reference control group is as 100%.”

Huh-7R xenograft = experiment: Subcutaneous xenograft model of HCC, Huh-7R; assay type: in vivo, mice; conditions: SC-20 20 mg/kg/d vs sorafenib 50 mg/kg/d
Procedure: as §4, §5

Huh-7 cells [8] = experiment: Apoptosis induction (Sub-G1) by flow cytometry; assay type: cell-based, human; conditions: Huh-7, FIGS. 5B and 5C
[9] = tested on: HUVEC (human umbilical venous endothelial cells); experiment: MTT cell viability, HUVEC; assay type: cell-based; conditions: 72 hours, especially in 5 uM treatments, FIG. 2B
Procedure: as §7, §10, §9

Hep3B cells [10] = conditions: human, 72 h
Procedure: as §7, §8, §9

| Compound | c-Jun relative gene expression, Mean [1] | screening criterion: increased expression of GADD45 family [2] | GADD45γ relative gene expression, Mean [2] | GADD45β relative gene expression, Mean [3] | cell viability of Hep3B (percentage of surviving cells) (Hep3B cells [4]) | growth inhibition of HCC cells compared with sorafenib [6] | GADD45β mRNA expression induction [3] | further results |
| --- | --- | --- | --- | --- | --- | --- | --- | --- |
| N#Cc1ccc(Oc2ccc(NC(=O)Nc3ccc(Cl)c(C(F)(F)F)c3)cc2)cc1 [SC-1] | 343.08% | satisfied the increased expression of GADD45 family | 402.46% | 1156.44% | – | – | – | – |
| Cc1cc(Oc2ccnc3c([N+](=O)[O-])cccc23)ccc1NC(=O)c1cc(C(F)(F)F)cc(C(F)(F)F)c1 [SC-20] | 515.47% | satisfied the increased expression of GADD45 family | 364.16% | 1674.94% | 36.78% | even more potent than sorafenib | significantly induced | mice survival time (Huh-7 xenograft; FIG. 6C): significantly prolong mice survival times more than highly dose of sorafenib; tumor growth inhibition (Huh-7 xenograft; daily gavage, FIG. 6A): significantly inhibited tumor growth more than highly dose of sorafenib; tumor growth in terms of tumor volume and weight (BNL-MEA allograft; BNL-MEA allograft, SC-20 20 mg/kg/d, daily gavage, twenty-five treatments, FIGS. 7A and 7B): significantly inhibited tumor growth; tumor growth inhibition compared with sorafenib (BNL-MEA allograft; orthotopic model, SC-20 20 mg/kg/d vs sorafenib 10 mg/kg/d, FIG. 7C): inhibited tumor growth significantly more than sorafenib; cell growth inhibition compared with sorafenib (Hep3B cells [4]; sorafenib-resistant Hep3B, 72 hours, FIG. 5A): more potency than sorafenib; cell growth inhibition compared with sorafenib (Huh-7 cells [5]): more potency than sorafenib; GADD45γ mRNA induction ([2]; sorafenib-sensitive Huh-7, 10 μm, cut-off more than 300%, FIG. 3A): can be induced; reduction of p-ERK (p-ERK in Hep3B cells): incapable of reducing p-ERK; reduction of p-ERK (p-ERK in Huh-7 cells): incapable of reducing p-ERK; GADD45γ mRNA induction [7]: can be induced; mice survival time (Huh-7R xenograft; FIG. 6C): significantly prolong mice survival times more than highly dose of sorafenib; tumor growth inhibition (Huh-7R xenograft; daily gavage, FIG. 6B): significantly inhibited tumor growth more than highly dose of sorafenib; apoptosis induction (Sub-G1) compared with sorafenib (Huh-7 cells [8]): more potency than sorafenib in inducing apoptosis; growth inhibition of HUVECs compared with sorafenib [9]: even more potent than sorafenib |
| Cc1cc(Oc2ccnc3c(N)cccc23)ccc1NC(=O)c1cc(C(F)(F)F)cc(C(F)(F)F)c1 [SC-21] | 77.51% | – | 96.65% | 94.65% | – | – | – | – |
| CC(=O)Nc1cccc2c(Oc3ccc(NC(=O)c4cc(C(F)(F)F)cc(C(F)(F)F)c4)c(C)c3)ccnc12 [SC-22] | 183.54% | – | 229.94% | 340.21% | – | – | – | – |
| N#Cc1ccc(Oc2ccc3cccc(NC(=O)Nc4ccc(Cl)c(C(F)(F)F)c4)c3c2)cc1 [SC-72] | 552.00% | satisfied the increased expression of GADD45 family | 1522.00% | 1951.02% | – | even more potent than sorafenib | – | cell viability of Hep3B (percentage of surviving cells) (Hep3B cells [10]): 15.65% |
| CNC(=O)c1cc(Oc2ccc(NC(=O)Nc3ccc(Cl)c(C(F)(F)F)c3)cc2)ccn1 [sorafenib, Sorafenib, reference compound] | 447.28% | – | 1377.54% | 2226.40% | 68.57% | – | significantly induced | – |
